In patent US20250002480A1, “AMINOHETEROARYL KINASE INHIBITORS” (ALLORION THERAPEUTICS INC, priority 2021, published 2025):

What was measured:
Assay type in all cases: biochemical
[1] = target: CDK4/Cyclin D1 (Homo sapiens, UniProt P11802); test: CDK4/Cyclin D1 in vitro kinase inhibition (Biological Example 1 of WO2022/111621)
Description: (§1) Biological activity for representative compounds of the present disclosure were tested according to those described in Biological Example 1 in PCT/CN2021/133429, published as WO2022/111621 on Jun. 2, 2022.

[2] = target: CDK6/Cyclin D1 (Homo sapiens, UniProt Q00534); test: CDK6/Cyclin D1 in vitro kinase inhibition (Biological Example 1 of WO2022/111621)
Chain of CDK6/Cyclin D1 (Q00534 whole entry): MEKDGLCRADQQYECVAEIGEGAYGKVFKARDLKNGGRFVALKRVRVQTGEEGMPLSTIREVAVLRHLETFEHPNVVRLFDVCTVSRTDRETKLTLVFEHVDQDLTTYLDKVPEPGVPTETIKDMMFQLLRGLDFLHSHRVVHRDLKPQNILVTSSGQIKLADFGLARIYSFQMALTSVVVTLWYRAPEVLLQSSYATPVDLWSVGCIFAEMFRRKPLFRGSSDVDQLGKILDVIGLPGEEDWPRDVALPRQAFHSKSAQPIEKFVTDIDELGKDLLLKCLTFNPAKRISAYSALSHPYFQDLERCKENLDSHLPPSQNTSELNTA
Chain of CDK6/Cyclin D1 (P24385 whole entry partner): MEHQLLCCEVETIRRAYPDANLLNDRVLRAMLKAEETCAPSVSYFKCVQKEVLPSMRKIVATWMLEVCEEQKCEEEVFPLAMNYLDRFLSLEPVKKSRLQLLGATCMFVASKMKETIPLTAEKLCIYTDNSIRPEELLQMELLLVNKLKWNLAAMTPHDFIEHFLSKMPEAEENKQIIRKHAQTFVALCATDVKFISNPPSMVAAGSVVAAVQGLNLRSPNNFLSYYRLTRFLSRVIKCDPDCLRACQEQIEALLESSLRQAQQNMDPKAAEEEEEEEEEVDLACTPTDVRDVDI
Description: as §1

[3] = target: CDK7/Cyclin H/MAT1 (Homo sapiens, UniProt P50613); test: CDK7/Cyclin H/MAT1 in vitro kinase inhibition (Biological Example 1 of WO2022/111621)
Chain of CDK7/Cyclin H/MAT1 (P50613 whole entry): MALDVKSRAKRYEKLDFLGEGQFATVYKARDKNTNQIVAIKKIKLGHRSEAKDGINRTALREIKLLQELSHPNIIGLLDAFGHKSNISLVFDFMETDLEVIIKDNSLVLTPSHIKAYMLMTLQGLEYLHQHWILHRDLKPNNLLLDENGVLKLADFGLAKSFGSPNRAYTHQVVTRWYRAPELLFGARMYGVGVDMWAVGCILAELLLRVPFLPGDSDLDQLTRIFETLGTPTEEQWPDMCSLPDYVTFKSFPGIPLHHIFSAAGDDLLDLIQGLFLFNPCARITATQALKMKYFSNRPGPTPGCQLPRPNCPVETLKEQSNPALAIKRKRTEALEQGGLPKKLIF
Chain of CDK7/Cyclin H/MAT1 (P51946 whole entry partner): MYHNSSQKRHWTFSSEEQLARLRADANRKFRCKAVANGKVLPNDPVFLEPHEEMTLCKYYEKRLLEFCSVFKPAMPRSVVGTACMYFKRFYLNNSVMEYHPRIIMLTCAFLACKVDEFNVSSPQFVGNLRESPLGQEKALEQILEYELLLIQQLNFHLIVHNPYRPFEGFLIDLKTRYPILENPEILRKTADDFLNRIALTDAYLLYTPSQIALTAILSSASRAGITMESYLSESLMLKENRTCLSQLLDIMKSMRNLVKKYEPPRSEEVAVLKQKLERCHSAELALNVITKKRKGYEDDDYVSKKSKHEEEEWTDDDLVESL
Chain of CDK7/Cyclin H/MAT1 (P51948 whole entry partner): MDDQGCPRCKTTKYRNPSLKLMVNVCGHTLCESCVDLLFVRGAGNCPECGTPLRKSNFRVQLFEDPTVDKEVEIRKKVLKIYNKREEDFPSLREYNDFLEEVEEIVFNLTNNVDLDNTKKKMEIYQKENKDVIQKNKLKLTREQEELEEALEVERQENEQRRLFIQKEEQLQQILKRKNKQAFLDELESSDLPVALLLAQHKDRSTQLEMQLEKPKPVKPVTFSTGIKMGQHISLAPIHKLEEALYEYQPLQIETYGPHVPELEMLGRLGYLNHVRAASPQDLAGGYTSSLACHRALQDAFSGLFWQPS
Description: as §1

[4] = target: CDK9/Cyclin T1 (Homo sapiens, UniProt P50750); test: CDK9/Cyclin T1 in vitro kinase inhibition (Biological Example 1 of WO2022/111621)
Chain of CDK9/Cyclin T1 (P50750 whole entry): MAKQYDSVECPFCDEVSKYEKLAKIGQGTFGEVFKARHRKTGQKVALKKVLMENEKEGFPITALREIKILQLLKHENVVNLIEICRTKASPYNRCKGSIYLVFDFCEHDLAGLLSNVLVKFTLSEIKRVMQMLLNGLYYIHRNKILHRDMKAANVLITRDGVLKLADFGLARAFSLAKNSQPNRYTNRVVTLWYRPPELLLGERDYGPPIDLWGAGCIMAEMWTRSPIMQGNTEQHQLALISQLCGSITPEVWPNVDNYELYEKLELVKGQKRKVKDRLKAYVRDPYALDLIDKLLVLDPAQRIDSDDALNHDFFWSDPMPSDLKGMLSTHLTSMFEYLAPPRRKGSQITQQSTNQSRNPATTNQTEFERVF
Chain of CDK9/Cyclin T1 (O60563 whole entry partner): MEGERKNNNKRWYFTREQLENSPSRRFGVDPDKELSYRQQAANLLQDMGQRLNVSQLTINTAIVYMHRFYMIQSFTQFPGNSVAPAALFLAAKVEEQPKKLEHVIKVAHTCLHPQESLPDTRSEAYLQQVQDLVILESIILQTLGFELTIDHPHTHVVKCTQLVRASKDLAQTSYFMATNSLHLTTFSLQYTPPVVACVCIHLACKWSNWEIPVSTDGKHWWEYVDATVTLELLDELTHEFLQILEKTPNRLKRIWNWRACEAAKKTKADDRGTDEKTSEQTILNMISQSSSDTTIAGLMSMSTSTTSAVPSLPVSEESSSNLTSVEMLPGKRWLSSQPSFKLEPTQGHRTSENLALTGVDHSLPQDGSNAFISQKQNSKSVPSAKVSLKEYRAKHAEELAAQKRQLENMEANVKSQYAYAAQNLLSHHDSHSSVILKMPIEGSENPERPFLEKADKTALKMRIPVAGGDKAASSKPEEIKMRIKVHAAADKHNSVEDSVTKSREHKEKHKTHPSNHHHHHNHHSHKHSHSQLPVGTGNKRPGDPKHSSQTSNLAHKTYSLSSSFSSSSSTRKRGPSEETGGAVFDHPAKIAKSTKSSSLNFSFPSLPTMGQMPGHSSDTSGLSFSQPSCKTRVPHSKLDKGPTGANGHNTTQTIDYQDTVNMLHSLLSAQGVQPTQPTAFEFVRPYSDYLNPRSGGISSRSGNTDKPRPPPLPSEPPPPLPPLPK
Description: as §1

Chain of CDK4/Cyclin D1 (P11802 whole entry): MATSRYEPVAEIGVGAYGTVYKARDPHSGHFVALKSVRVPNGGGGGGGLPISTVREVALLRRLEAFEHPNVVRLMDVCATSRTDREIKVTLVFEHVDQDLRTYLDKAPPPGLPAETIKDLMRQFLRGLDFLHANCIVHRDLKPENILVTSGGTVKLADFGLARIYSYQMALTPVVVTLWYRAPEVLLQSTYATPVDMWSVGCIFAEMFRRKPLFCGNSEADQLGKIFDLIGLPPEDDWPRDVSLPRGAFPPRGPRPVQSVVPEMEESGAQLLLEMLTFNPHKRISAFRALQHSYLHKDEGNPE
Chain of CDK4/Cyclin D1 (P24385 whole entry partner): as the sequence (P24385 whole entry partner) above

## [2H]C([2H])([2H])NS(=O)(=O)c1ccc(Nc2ncc(C(F)(F)F)c(O[C@H]3CCOC[C@H]3O)n2)cc1 [Compound E2]
[1]
  IC50: ≥ 1000 nM
[2]
  IC50: ≥ 1000 nM
[3]
  IC50: ≥ 1000 nM

## [2H]C([2H])([2H])NS(=O)(=O)c1ccc(Nc2ncc(C(F)(F)F)c(O[C@@H]3CCOC[C@H]3O)n2)cc1 [Compound E3]
[2]
  IC50: ≥ 1000 nM

## [2H]C([2H])([2H])NS(=O)(=O)c1ccc(Nc2ncc(C(F)(F)F)c(O[C@H]3CCOC[C@@H]3O)n2)cc1 [Compound E4]
[1]
  IC50: ≥ 1000 nM
[2]
  IC50: ≥ 1000 nM
[3]
  IC50: ≥ 1000 nM

## NS(=O)(=O)c1ccc(Nc2ncc(C(F)(F)F)c(O[C@@H]3CCOC[C@@H]3O)n2)cc1 [Compound E7, 4-((4-(((3S,4R)-3-hydroxytetrahydro-2H-pyran-4-yl)oxy)-5-(trifluoromethyl)pyrimidin-2-yl)amino)benzenesulfonamide]
[4]
  IC50: ≥ 1000 nM
[3]
  IC50: ≥ 1000 nM
